The supplement of paper PMC10307832

How the values were obtained:
Assay in all cases: relative viability (nuclei count vs DMSO), 5 days (fraction); higher = more cells survive
Veliparib + Palbociclib = compound: C[C@]1(c2nc3c(C(N)=O)cccc3[nH]2)CCCN1 [Veliparib] + CC(=O)c1c(C)c2cnc(Nc3ccc(N4CCNCC4)cn3)nc2n(C2CCCC2)c1=O [Palbociclib] (partner 0.5 µM)
In short: (§1)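 Relative viability is defined as nuclei in treated wells over nuclei in vehicle wells. Duplicate plates were run and medians reported. Lung cancer cell lines in 1536-well plates were dosed by pin tool one day after seeding, with one drug or with a fixed anchor-drug dose plus five library-drug doses (not always all listed) in √10 steps, and nuclei were counted after 5 days.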

[1] = compound: COC1=CC=C(C=C1)CN2C=CC3=C2C=C(C=C3)C(=O)NO + C[C@]1(O)C[C@@H](c2nc(-c3ccc4ccc(-c5ccccc5)nc4c3)c3c(N)nccn32)C1 [Linsitinib] (partner 1 µM)
In short: as §1

Veliparib + Decitabine = compound: C[C@]1(c2nc3c(C(N)=O)cccc3[nH]2)CCCN1 [Veliparib] + Nc1ncn([C@H]2C[C@H](O)[C@@H](CO)O2)c(=O)n1 [Decitabine] (partner 2 µM)
In short: as §1

[2] = compound: COC1=CC=C(C=C1)CN2C=CC3=C2C=C(C=C3)C(=O)NO + C[C@@H](Oc1cc(-c2cnn(C3CCNCC3)c2)cnc1N)c1c(Cl)ccc(F)c1Cl [Crizotinib] (partner 1 µM)
In short: as §1

Cell Line	relative viability (Veliparib + Palbociclib; first compound 0.02 µM)	relative viability (Veliparib + Palbociclib; first compound 0.06325 µM)	relative viability (Veliparib + Palbociclib; first compound 0.2 µM)	relative viability (Veliparib + Palbociclib; first compound 0.6325 µM)	relative viability (Veliparib + Palbociclib; first compound 2 µM)	relative viability ([1]; first compound 0.253 µM)	relative viability ([1]; first compound 0.8 µM)	relative viability ([1]; first compound 2.53 µM)	relative viability ([1]; first compound 8 µM)	relative viability (Veliparib + Decitabine; first compound 0.02 µM)	relative viability (Veliparib + Decitabine; first compound 0.06325 µM)	relative viability (Veliparib + Decitabine; first compound 0.2 µM)	relative viability (Veliparib + Decitabine; first compound 0.6325 µM)	relative viability (Veliparib + Decitabine; first compound 2 µM)	relative viability ([2]; first compound 0.253 µM)	relative viability ([2]; first compound 0.8 µM)	relative viability ([2]; first compound 2.53 µM)	relative viability ([2]; first compound 8 µM)	relative viability ([1]; first compound 0.08 µM)	relative viability ([2]; first compound 0.08 µM)
HCC-366	0.352	0.371	0.369	0.371	0.341	0.98	0.636	0.673	0.696	0.332	0.225	0.195	0.189	0.182	0.476	0.534	0.413	0.352	–	–
HCC-827	0.458	0.459	0.51	0.176	0.454	0.94	0.942	0.981	0.883	0.298	0.303	0.292	0.241	0.3	0.968	0.898	0.961	0.878	0.994	0.87
HOP-62	0.384	0.333	0.483	0.343	0.368	1.06	1.01	0.924	1.04	0.221	0.198	0.164	0.197	0.251	0.833	1.01	1.01	0.959	0.681	0.826
IA-LM	–	–	–	–	–	0.587	0.492	0.698	0.663	–	–	–	–	–	0.806	0.834	1.02	0.694	0.613	0.618
LC-2-ad	0.485	0.496	0.508	0.477	0.505	0.851	0.873	0.999	0.804	0.775	0.801	0.706	0.673	0.763	0.531	0.467	0.408	0.397	0.783	0.33
LCLC-97TM1	0.219	0.194	0.233	0.23	0.249	0.212	0.225	0.206	0.156	0.205	0.206	0.237	0.208	0.194	0.285	0.395	0.259	0.237	–	–
LCLC-103H	0.44	0.417	0.48	0.44	0.456	1.13	0.991	1.07	1.02	0.809	0.662	0.667	0.705	0.714	0.94	1.15	0.984	1.02	1.03	1.1
LK-2	0.662	0.608	0.707	0.616	0.779	0.45	0.579	0.515	0.533	0.259	0.278	0.273	0.283	0.225	0.256	0.258	0.255	0.226	–	–
LOU-NH91	0.538	0.546	0.552	0.574	0.538	0.995	1.04	0.954	0.913	0.847	0.785	0.792	0.782	0.837	0.738	0.752	0.763	0.704	0.74	0.693
NCI-H522	1.01	0.864	1.18	1.11	1	–	–	–	–	0.663	0.561	0.547	0.622	0.678	–	–	–	–	–	–
NCI-H596	–	–	–	–	–	1.08	1.01	0.915	0.992	1.14	1	0.969	0.814	0.965	0.961	0.963	0.868	1.01	0.982	1.05
NCI-H1299	–	–	–	–	–	0.976	0.994	0.977	0.959	–	–	–	–	–	0.978	0.967	0.943	0.959	0.952	0.947
NCI-H1395	0.606	0.58	0.614	0.565	0.554	1.28	1.11	1.08	0.918	0.704	0.626	0.686	0.606	0.652	–	–	–	–	0.773	–
NCI-H1563	–	–	–	–	–	1.18	1.26	1.18	1.12	–	–	–	–	–	0.847	0.957	0.921	0.943	1.1	0.718
NCI-H1648	0.257	–	–	0.232	0.274	–	–	–	–	0.487	–	–	0.529	0.424	–	–	–	–	–	–
NCI-H1650	0.236	0.305	0.28	0.322	0.345	–	–	–	–	0.256	0.326	0.433	0.43	0.308	0.982	1.05	0.915	0.693	–	0.902
NCI-H1703	–	–	–	–	–	0.783	1.09	0.69	1.16	–	–	–	–	–	0.552	0.619	0.637	0.72	–	0.158
NCI-H1793	0.31	0.292	0.336	0.348	0.331	0.941	1.09	0.976	0.86	0.511	0.47	0.445	0.429	0.424	–	–	–	–	0.934	–
NCI-H2170	0.43	0.446	0.435	0.386	0.399	–	–	–	–	0.405	0.436	0.378	0.389	0.381	1.19	1.17	1.26	1.12	–	0.938
NCI-H2228	0.553	0.897	0.645	0.774	0.759	0.733	0.971	0.578	0.58	–	–	–	–	–	0.549	0.535	0.492	0.423	0.77	0.45
NCI-H2342	0.482	0.581	0.503	0.522	0.491	–	–	–	–	0.729	0.758	0.679	0.718	0.725	–	–	–	–	–	–
SW 900	–	0.516	0.557	0.539	0.56	–	–	–	–	–	0.377	0.396	0.427	0.388	–	–	–	–	–	–
